Results from patent publication US20250009763A1, “METHODS FOR EXTENDING LIFESPAN AND/OR DELAYING AGING” (priority 2023, published 2025).

Test system: aged C57BL/6J mice
Assay: Rearing behavior
Type: in vivo, mouse
Details: long-term (111 weeks of age), old-aged mice; FIG. 4D
Method: The rearing behavior of the male C57BL/6J mice fed a standard rodent chow with or without 50 mg/kg PN6 for 22 weeks (at 72 weeks of age; mid-term) or for 61 weeks (at 111 weeks of age; long-term) was analyzed using the OxyletPro System, in which the mice were housed individually in metabolic cages that were equipped with infrared light beam frames surrounding them. Mid-term: SD, n=16; PN6, n=8; long-term: SD, n=12; PN6, n=8.

## CCC(CC[C@@H](C)C1CCC2C3CC(=O)[C@H]4C[C@@H](O)CC[C@]4(C)C3CC[C@@]21C)C(C)C (stereo in doubt) [PN6, (24S)-3β-hydroxy-5α-stigmastan-6-one]
  rearing behavior (exploratory activity): increase the exploratory activity
